According to patent US12559863B2, “Macrocyclic modulators of disease associated protein misfolding and aggregation” (RESQ BIOTECH, priority 2017, dated 2026):
Where a SMILES comes first, the peptide text is derived from it.

Experiments:
Aβ42 = target: T1, Aβ42 (Homo sapiens, UniProt P05067); experiment: Transmission electron microscopy of Aβ42; format: biochemical; details: 50 μM Aβ42 with 100 μM peptide, 30-d aged
T1 construct: one of the secondary products yields a 42-amino-acid-long peptide (Aβ42); purchased Eurogentec, Belgium; host or cells: chemical synthesis
Procedure: For TEM analysis, the 30-d aged 50 μM CD solutions of Aβ42 (with 100 μM of the selected peptides or without) was mixed well by pipetting. 2 μL of this solution were placed in a carbon-coated film on 200-mesh copper grids (Agar Scientific, UK) for 5 min. After adsorption, grids were washed in deionized water and negatively stained by applying a 2-μl drop of freshly prepared 1% (w/v) uranyl acetate (Sigma-Aldrich, USA) in Milli-Q water for 5 min. Excess fluid was blotted off, and grids were washed in deionized water and dried in air. Images were recorded using a FEI CM20 electron microscope (FEI, USA) with a Gatan GIF200 imaging filter (Gatan, USA), equipped with a Peltier-cooled slow-scan CCD camera.

Aβ40 [1] = target: T2, Aβ40 (Homo sapiens, UniProt P05067); experiment: Circular dichroism of Aβ40 with cyclic peptide; format: biochemical; details: 50 μM Aβ, 33° C., 30 d
T2 construct: The main product of APP cleavage consists of 40 amino acids (Aβ40); purchased Eurogentec, Belgium; host or cells: chemical synthesis
Procedure: Synthetic Aβ40 and Aβ42 peptides were gently dissolved without vortexing in doubly deionized water to a final concentration of 100 μM. These solutions were then diluted by PBS addition (10 mM, pH 7.33) to achieve a final Aβ concentration of 50 μM.
Appropriate amounts of synthetic cyclic peptides were added to either 40 μM SOD1(A4V) or 50 μM Aβ solutions at the desired cyclic peptide:target protein molar ratio. SOD1(A4V) structural changes were monitored for 90 d at 25° C., under quiescent conditions. Aβ structural changes were monitored for 30 d at 33° C. under quiescent conditions. CD spectra in the range 190-260 nm were recorded on a JASCO J-715 spectropolarimeter (Jasco Co., Japan) using quartz cuvettes with 1 mm path length. Each reported spectrum is the average of three scans at a rate of 100 nm·min^−1 and a resolution of 0.5 nm.

Aβ42-GFP = target: T3, Aβ42-GFP (Homo sapiens, UniProt P05067); experiment: High-throughput sequencing of pSICLOPPS vectors isolated after bacterial sorting for enhanced Aβ42-GFP fluorescence
T3 construct: a chimeric fusion of the human Aβ(1-42) peptide (Aβ42) with GFP; expressed in transfected cells; host or cells: E. coli BL21(DE3)
In short: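 E. coli BL21(DE3) expressing Aβ42-GFP from the T7 promoter was co-transformed with cyclic peptide libraries (0.002% L-arabinose, 0.1 mM IPTG at OD600 ~0.5, 37° C). High-fluorescence cells were sorted over repeated rounds. Plasmid peptide-encoding regions were then sequenced by Ion Torrent, discarding sequences with stop codons.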

Aβ40 [2] = target: T2, Aβ40; experiment: Thioflavin T dye-binding assay of Aβ40; format: biochemical; details: 30-d aged CD solutions
Procedure: For Aβ ThT staining, 100 μL of the 30-d aged 50 μM CD solutions were diluted in PBS (10 mM, pH 7.33) to form a 25 μM Aβ solution with 200 μL final volume. 2.5 μL from a stock solution of ThT (Sigma-Aldrich, USA) in PBS (10 mM, pH 7.33) was added to the prepared Aβ solutions to achieve a final ThT concentration of 5 μM. The mixture was agitated adequately by pipetting and immediately thereafter, fluorescence was monitored with excitation at 440 nm (EM slit=2.5 nm, PMT Voltage 700 V, response 0.4 s) using a HITACHI F-2500 (Japan) spectrofluorometer.

Compound	Aβ42 fibrils by TEM (Aβ42)	effect on aggregation process of Aβ40 (CD) (Aβ40 [1])	Reads/Total SASPT-like reads (%) (Aβ42-GFP; Table 2)	Reads/Total pentapeptide reads (%) (Aβ42-GFP; Table 2)	Reads/Total peptide reads (%) (Aβ42-GFP; Table 2)	Number of reads (Aβ42-GFP; Table 2, after second round of sorting)	Aβ40 fibril formation (ThT) (Aβ40 [2])	Reads/Total TXXXR reads (%) (Aβ42-GFP; after the second round of bacterial sorting, relative to total TXXXR reads)	Reads/Total pentapeptide reads (%) (Aβ42-GFP; after the second round of bacterial sorting, relative to total pentapeptide reads)	Reads/Total peptide reads (%) (Aβ42-GFP; after the second round of bacterial sorting, relative to total peptide reads)	Number of reads (Aβ42-GFP; high-throughput sequencing of isolated pSICLOPPS-NuX1X2X3-X5 vectors after the second round of bacterial sorting for enhanced Aβ42-GFP fluorescence, selected cyclo-TXXXR pentapeptides)
C[C@@H]1NC(=O)[C@H](CO)NC(=O)[C@H]([C@@H](C)O)NC(=O)[C@@H]2CCCN2C(=O)[C@H](CO)NC1=O [AβC5-34, cyclo-SASPT] (cyclo(ASPTS))	notably fewer, shorter and ill-developed	did not have the same effect and resulted in the appearance of a low-intensity negative peak	97.349%	0.632%	0.567%	25673	almost unaffected	–	–	–	–
C[C@@H]1NC(=O)[C@H]([C@@H](C)O)NC(=O)[C@H](CCCNC(=N)N)NC(=O)[C@H](CC(=O)O)NC(=O)[C@H](Cc2ccccc2)NC1=O [AβC5-116, cyclo-TAFDR] (cyclo(AFDRT))	notably fewer, shorter and ill-developed	strongly inhibit the aggregation of Aβ40	–	–	–	–	reduced	0.223%	0.105%	0.094%	4,243
cyclo-TWSVW (cyclic) [SOD1C5-4]	–	did not have any effect	–	–	–	–	did not have any effect	–	–	–	–
